Test results reported in article PMC8250858, “A Systematic Study of the Stability, Safety, and Efficacy of the de novo Designed Antimicrobial Peptide PepD2 and Its Modified Derivatives Against Acinetobacter baumannii” (Frontiers in Microbiology, 2021).
Converted amounts (≈) assume the structure as drawn. Read-outs that look alike come from different tables or passages of the source. Non-standard residues stand in square brackets, D forms with d. Residues, ends and D or L forms follow the SMILES beside them. *: point of attachment. Stearoyl = CCCCCCCCCCCCCCCCCC(=O)*; Palmitoyl = CCCCCCCCCCCCCCCC(=O)*; Myristoyl = CCCCCCCCCCCCCC(=O)*; Octanoyl = CCCCCCCC(=O)*; Orn = NCCC[C@H](N)C(=O)O; Hexanoyl = CCCCCC(=O)*; Butyryl = CCCC(=O)*

Legend:
Hemolytic assay = format: cell-based, rat
Protocol: The blood cells were washed three times with PBS, where the volume of PBS was the same as that of the original blood, by gently turning the centrifuge tube upside down. After washing, ten microliters of blood cells were diluted 2,000-fold in PBS to count the cells. Finally, red blood cells were diluted to 5 × 10^8 cells/mL in PBS. Peptides were dissolved in water and filtered through a 0.2-μm filter to make a stock solution. The peptide concentration was quantitated by the UV280. The peptide solution was diluted in PBS to different concentrations (five times the tested concentrations). Twenty microliters of the peptide in PBS was mixed with 80 μL of red blood cell solution in a 96-well plate (V-bottom). The final peptide concentration was 16–256 μg/mL. In the positive control group, 20 μL of 5% Triton X-100 was added to the red blood cell solution for a final Triton X-100 concentration of 1%. For the negative control group, 20 μL of PBS solution was added. The 96-well plate was incubated at 37°C for 45 min. After centrifuging the 96-well plate at 1,500 × g for 5 min, 30 μL of the supernatant was mixed with 100 μL of deionized water in a 96-well plate (flat bottom). The concentration of heme in each well was measured by the UV405 using an Infinite M1000 pro (Tecan Austria GmbH, Austria). The hemolytic activity was calculated using the following formula. Hemolyticactivity=[(F-F0)/(Ft-F0)]×100% F is the UV405 of the peptide-treated sample F0 is the UV405 of the sample without peptide (negative control) Ft is the UV405 of the Triton-treated sample (positive control)

A. baumannii ATCC 17978 = format: cell-based, Acinetobacter baumannii
Protocol: Following CLSI guideline M07-A11, single bacterial colonies of A. baumannii ATCC 17978 grown on Müller–Hinton agar (MHA) plates were picked and inoculated in 4 mL of Müller–Hinton broth (MHB) at 37°C and shaken at 180 rpm for 4∼6 h. The bacterial broth was diluted in the same medium to give a cell density of 1∼2 × 10^8 CFU/mL (OD600 = 0.38∼0.4 for A. baumannii) (Supplementary Figure 1; [Dillon et al., 2020]). Then, the broth was diluted 20-fold. Peptides were dissolved in water and filtered through a 0.2-μm filter to make a stock solution. The peptide concentration was quantified by the UV280. Then, the peptide solution was serially diluted in MHB to final peptide concentrations of 1, 2, 4, 8, 16, and 32 μg/mL. One hundred microliters of serially diluted peptide and 10 μL of bacterial culture were mixed in a 96-well polystyrene plate. Each well contained approximately 5 × 10^5 CFU/mL. The positive control was a mixture of 100 μL of MHB and 10 μL of the bacterial culture. The negative control was 110 μL of MHB. The plates were incubated at 37°C without shaking. […] The bacterium-peptide mixtures (the mixture without visible growth and the mixture containing a two-fold […] peptide concentration than the mixture without growth), positive control, and negative control (3 μL each) were spotted on an MHA plate and incubated at 37°C for 24 h. The MBC was determined as the lowest peptide concentration at which no colonies formed.
The MIC and MBC of our designed peptides against A. baumannii were obtained by using the broth microdilution method in the CLSI protocol. The bacterial cell number was carefully counted, and a final cell density of 5 × 10^5 CFU/mL in each well was used in the MIC test (Supplementary Figure 1). The minimal peptide concentration at which no bacterial growth was observed was taken as the MIC value. The culture after peptide treatment was spotted on an MHA plate, and the peptide concentration that could kill all the bacteria was defined as the MBC. The MIC/MBC and hemolytic activity of these peptides are shown and compared in Figure 1.

HEK293 cells = format: cell-based, human
Protocol: Cell viability assays were performed by using the CellTiter 96® AQueous Non-Radioactive Cell Proliferation Assay (Promega, United States), in which 3-(4,5-dimethylthiazol-2-yl)-5-(3-carboxymethoxyphenyl)-2-(4-sulfophenyl)-2H-tetrazolium salt (MTS) can be reduced to purple-colored formazan by intact cells. […] The test peptide was dissolved in water and filtered through a 0.2-μm filter. The peptide concentration was quantitated by the UV280 to make a 5,120 μg/mL stock solution and then serially diluted in serum-free DMEM. On the second day, the medium was replaced with 100 μL of serum-free DMEM containing different peptide concentrations and incubated for 1 or 24 h. Serum-free DMEM without peptide was used as a negative control and medium containing 1% Triton X-100 was used as a positive control. One milligram of MTS powder was dissolved in 0.5 mL of Dulbecco’s phosphate-buffered saline (DPBS). The MTS solution was mixed with one-twentieth of a phenazine methosulfate (PMS) solution ([…]). To each well, 20 μL of the MTS/PMS solution was added. After 3 h, the absorbance was measured with an Infinite M1000 pro (Tecan Austria GmbH, Austria) at a wavelength of 490 nm. Cell viability was calculated using the following equation. Cellviability=[(A-Ap)/(An-Ap)]×100% A is the UV490 of the peptide-treated sample An is the UV490 of the sample without peptide (negative control) Ap is the UV490 of the Triton-treated sample (positive control)

in vitro = in vitro ADME, rat; settings: for half-life at 0.6 mg/mL: rat plasma, room temperature
Protocol: EDTA-treated rat whole blood was centrifuged at 4°C and 840 × g for 5 min, and then the blood cells were removed ([[…] et al., 2019]). The supernatant was placed in an Eppendorf tube and centrifuged at 4°C and 13,000 rpm for 10 min to remove lipids (white precipitate). The supernatant was filtered through a 0.2-μm filter. The peptide was dissolved in water and filtered through a 0.2-μm filter. The peptide concentration was quantified by the UV280 to make a 1 mg/mL stock solution. […] At the indicated time, the peptide was analyzed by HPLC with a C18 column using a linear gradient of 20-65% B over 15 min. Solution A: 5% acetonitrile plus 0.1% trifluoroacetic acid in water; solution B: 0.1% trifluoroacetic acid in acetonitrile.

A. baumannii 19606 = tested on: A. baumannii 19606; set-up: method as in Feng et al., 2013; settings: ref Feng et al., 2013; cited from earlier work
A. baumannii = tested on: A. baumannii; set-up: method as in Sato et al., 2018; settings: ref Sato et al., 2018; cited from earlier work
[1] = rat red blood cells, 256 μg/mL peptide, 37°C 45 min, read-out: Hemolysis (%) at 256 μg/mL

Compound | hemolysis at 45 min, 256 μg/mL (Hemolytic assay; rat) [%] | MBC A. baumannii 17978 (A. baumannii ATCC 17978; ATCC 17978, 24 h) | further results
CCCCCCCCCCCCCC(=O)N[C@@H](Cc1c[nH]c2ccccc12)C(=O)N[C@@H](CCCCN)C(=O)N[C@@H](CCCCN)C(=O)N[C@@H](CC(C)C)C(=O)N[C@@H](CCCCN)C(=O)N[C@@H](CCCCN)C(=O)N[C@@H](CC(C)C)C(=O)N[C@@H](CC(C)C)C(=O)N[C@@H](CCCCN)C(=O)N[C@@H](CCCCN)C(=O)N[C@@H](CC(C)C)C(=O)N[C@@H](CCCCN)C(=O)N[C@@H](CCCCN)C(=O)N[C@@H](CC(C)C)C(N)=O [pepD2M] (Myristoyl-WKKLKKLLKKLKKL-NH2) | 93.6 |  | 
CCCCCCCCCCCCCCCC(=O)N[C@@H](Cc1c[nH]c2ccccc12)C(=O)N[C@@H](CCCCN)C(=O)N[C@@H](CCCCN)C(=O)N[C@@H](CC(C)C)C(=O)N[C@@H](CCCCN)C(=O)N[C@@H](CCCCN)C(=O)N[C@@H](CC(C)C)C(=O)N[C@@H](CC(C)C)C(=O)N[C@@H](CCCCN)C(=O)N[C@@H](CCCCN)C(=O)N[C@@H](CC(C)C)C(=O)N[C@@H](CCCCN)C(=O)N[C@@H](CCCCN)C(=O)N[C@@H](CC(C)C)C(N)=O [pepD2P] (Palmitoyl-WKKLKKLLKKLKKL-NH2) | 83.5 |  | 
CCCCCCCCCCCCCCCCCC(=O)N[C@@H](Cc1c[nH]c2ccccc12)C(=O)N[C@@H](CCCCN)C(=O)N[C@@H](CCCCN)C(=O)N[C@@H](CC(C)C)C(=O)N[C@@H](CCCCN)C(=O)N[C@@H](CCCCN)C(=O)N[C@@H](CC(C)C)C(=O)N[C@@H](CC(C)C)C(=O)N[C@@H](CCCCN)C(=O)N[C@@H](CCCCN)C(=O)N[C@@H](CC(C)C)C(=O)N[C@@H](CCCCN)C(=O)N[C@@H](CCCCN)C(=O)N[C@@H](CC(C)C)C(N)=O [pepD2S] (Stearoyl-WKKLKKLLKKLKKL-NH2) | 60.7 |  | 
CCCC(=O)N[C@@H](Cc1c[nH]c2ccccc12)C(=O)N[C@@H](CCCCN)C(=O)N[C@@H](CCCCN)C(=O)N[C@@H](CC(C)C)C(=O)N[C@@H](CCCCN)C(=O)N[C@@H](CCCCN)C(=O)N[C@@H](CC(C)C)C(=O)N[C@@H](CC(C)C)C(=O)N[C@@H](CCCCN)C(=O)N[C@@H](CCCCN)C(=O)N[C@@H](CC(C)C)C(N)=O [pepD3B] (Butyryl-WKKLKKLLKKL-NH2) | 7.89 | 8 µg/mL (≈ 5.35 µM) | 
CCCCCC(=O)N[C@@H](Cc1c[nH]c2ccccc12)C(=O)N[C@@H](CCCCN)C(=O)N[C@@H](CCCCN)C(=O)N[C@@H](CC(C)C)C(=O)N[C@@H](CCCCN)C(=O)N[C@@H](CCCCN)C(=O)N[C@@H](CC(C)C)C(=O)N[C@@H](CC(C)C)C(=O)N[C@@H](CCCCN)C(=O)N[C@@H](CCCCN)C(=O)N[C@@H](CC(C)C)C(N)=O [pepD3H] (Hexanoyl-WKKLKKLLKKL-NH2) | 54.1 | 8 µg/mL (≈ 5.25 µM) | 
CCCCCCCC(=O)N[C@@H](Cc1c[nH]c2ccccc12)C(=O)N[C@@H](CCCCN)C(=O)N[C@@H](CCCCN)C(=O)N[C@@H](CC(C)C)C(=O)N[C@@H](CCCCN)C(=O)N[C@@H](CCCCN)C(=O)N[C@@H](CC(C)C)C(=O)N[C@@H](CC(C)C)C(=O)N[C@@H](CCCCN)C(=O)N[C@@H](CCCCN)C(=O)N[C@@H](CC(C)C)C(N)=O [pepD3O] (Octanoyl-WKKLKKLLKKL-NH2) | 86 | 8 µg/mL (≈ 5.16 µM) | 
CC(=O)N[C@@H](Cc1c[nH]c2ccccc12)C(=O)N[C@@H](CCCN)C(=O)N[C@@H](CCCN)C(=O)N[C@@H](CC(C)C)C(=O)N[C@@H](CCCN)C(=O)N[C@@H](CCCN)C(=O)N[C@@H](CC(C)C)C(=O)N[C@@H](CC(C)C)C(=O)N[C@@H](CCCN)C(=O)N[C@@H](CCCN)C(=O)N[C@@H](CC(C)C)C(=O)N[C@@H](CCCN)C(=O)N[C@@H](CCCN)C(=O)N[C@@H](CC(C)C)C(N)=O [pepO2, Ac-WOOLOOLLOOLOOL-NH2] (Ac-W[Orn][Orn]L[Orn][Orn]LL[Orn][Orn]L[Orn][Orn]L-NH2) | 0.23 | 8 µg/mL (≈ 4.64 µM) | 
CC(=O)N[C@@H](Cc1c[nH]c2ccccc12)C(=O)N[C@H](CCCCN)C(=O)N[C@H](CCCCN)C(=O)N[C@H](CC(C)C)C(=O)N[C@H](CCCCN)C(=O)N[C@H](CCCCN)C(=O)N[C@H](CC(C)C)C(=O)N[C@H](CC(C)C)C(=O)N[C@H](CCCCN)C(=O)N[C@H](CCCCN)C(=O)N[C@H](CC(C)C)C(=O)N[C@H](CCCCN)C(=O)N[C@H](CCCCN)C(=O)N[C@H](CC(C)C)C(N)=O [pepdD2, Ac-Wkklkkllkklkkl-NH2] (Ac-W[dK][dK][dL][dK][dK][dL][dL][dK][dK][dL][dK][dK][dL]-NH2) |  | 8 µg/mL (≈ 4.36 µM) | HEK293 IC50 (HEK293 cells; 1 h): 40.2 µg/mL; HEK293 IC50 (HEK293 cells; 24 h): 20.6 µg/mL; hemolysis at 45 min, 256 μg/mL (Hemolytic assay; [1]): 2.9%; Extension of peptide half-life in plasma (in vitro): more than 12 fold; remaining at 72 h, 0.6 mg/mL (in vitro; rat, plasma): ~90%; half-life at 0.6 mg/mL (in vitro; rat, plasma): 290 h
Ac-WKKLKKLLKKL-NH2 [pepD3] |  | 8 µg/mL | HEK293 IC50 (HEK293 cells; 1 h): 49.5 µg/mL; HEK293 IC50 (HEK293 cells; 24 h): 68.1 µg/mL; hemolysis at 45 min, 256 μg/mL (Hemolytic assay; [1]): 3.15%; half-life at 0.6 mg/mL (in vitro; rat, plasma): 19.1 h
Ac-WKKLKKLLKKLKKL-NH2 [pepD2] |  | 8/8 μg/mL | HEK293 IC50 (HEK293 cells; 1 h): 29.1 µg/mL; HEK293 IC50 (HEK293 cells; 24 h): 37.3 µg/mL; hemolysis at 45 min, 256 μg/mL (Hemolytic assay; [1]): 9.6%; MIC A. baumannii 17978 (A. baumannii ATCC 17978; MHB, 20 h, 5 × 10^5 CFU/mL): 8 µg/mL; MBC A. baumannii 17978 (A. baumannii ATCC 17978; spotted on MHA plate, 24 h): 8 µg/mL; half-life at 0.6 mg/mL (in vitro; rat, plasma): 23.1 h
Ac-WKKVKKVVKKVKKV-NH2 [pepV2] | 0.31 | 32 µg/mL | 
Ac-WRRLRRLLRRLRRL-NH2 [pepR2] | 106 | 8 µg/mL | 
LL-37: natural human antimicrobial peptide |  |  | MIC against A. baumannii 19606 (A. baumannii 19606): 16 µg/mL
colistin sulfate |  |  | MIC against A. baumannii (A. baumannii): 2 µg/mL
